From patent US20100055032A1, “METHODS FOR […] IMAGING USING NANOP[…] AGENTS” (NanoScan Imaging LLC, priority 2001, published 2010)

Assay: CT evaluation of initial uptake and vascular distribution of PH-50 in normal rabbits
Type: in vivo, New Zealand white rabbits
Conditions: for Percent Uptake (%) Aorta / Percent Uptake (%) Brain / Percent Uptake (%) Cardiac / Percent Uptake (%) Liver / Percent Uptake (%) Portal Vein / Percent Uptake (%) Posterior Vena Cava: pre-treatment = 0
Description: One (1) mL of PH-50 injected as a bolus intravenously (IV) via the jugular vein (n=2); and three (3) mL with a five (5) minute infusion via IV by way of the jugular vein (n=2); using the criteria set forth below in Table 1:
The animals were anesthetized via mask using Isoflorene® prior to each study and maintained under anesthesia during CT scan procedures. The animals were recovered and were mobile and allowed to drink up to the 8 hour study. Digital Subtraction Angiography (DSA) was performed during initial injection (one IV bolus and one infusion), then each rabbit was immediately moved to CT. The CT was performed after the initial injection (one IV bolus and one infusion).
All CT imaging was performed using a GE® Sytec Sri Helical Scanner (Milwaukee, Wis.) and the images were stored as DICOM3 on GE® optical and CD-Rom medium. The CT imaging parameters for these studies were 1 mm consecutive slices at 120 kvp at 1.5 sec, 200 mA. All scans were done with a standard phantom placed beneath the animal. All CT scans performed were of the entire animal (rostral nasal area to pelvis). Contrast attenuation was measured in Hounsfield units (HU) and expressed as percent (%) uptake, taking into account the calibration from the phantom. The iodine concentration and iodine uptake were estimated post-injection from vascular, lung and liver tissues.

[1] = Rabbit No. 1151 (infusion), 0 min
[2] = Rabbit No. 1151 (infusion), 5 min
[3] = Rabbit No. 1151 (infusion), 15 min
[4] = Rabbit No. 1151 (infusion), 60 min
[5] = Rabbit No. 1151 (infusion), 480 min
[6] = Rabbit No. 1151, infusion 3 mL/5 min IV (150 mg/kg), 0 min post injection
[7] = Rabbit No. 1151, infusion 3 mL/5 min IV (150 mg/kg), 5 min post injection
[8] = Rabbit No. 1151, infusion 3 mL/5 min IV (150 mg/kg), 15 min post injection
[9] = Rabbit No. 1151, infusion 3 mL/5 min IV (150 mg/kg), 60 min post injection
[10] = Rabbit No. 1151, infusion 3 mL/5 min IV (150 mg/kg), 480 min post injection
[11] = Rabbit No. 1156 (bolus), 15 min
[12] = Rabbit No. 1156 (bolus), 60 min
[13] = Rabbit No. 1156 (bolus), 480 min
[14] = Rabbit No. 1156, bolus injection 1 mL IV (50 mg/kg), 0 min post injection
[15] = Rabbit No. 1156, bolus injection 1 mL IV (50 mg/kg), 5 min post injection
[16] = Rabbit No. 1156, bolus injection 1 mL IV (50 mg/kg), 15 min post injection
[17] = Rabbit No. 1156, bolus injection 1 mL IV (50 mg/kg), 60 min post injection
[18] = Rabbit No. 1156, bolus injection 1 mL IV (50 mg/kg), 480 min post injection
[19] = Rabbit No. 1159, bolus injection 1 mL IV (50 mg/kg), 15 min post injection
[20] = Rabbit No. 1159, bolus injection 1 mL IV (50 mg/kg), 60 min post injection
[21] = Rabbit No. 1159, bolus injection 1 mL IV (50 mg/kg), 480 min post injection
[22] = Rabbit No. 1166, infusion 3 mL/5 min IV (150 mg/kg), 15 min post injection
[23] = Rabbit No. 1166, infusion 3 mL/5 min IV (150 mg/kg), 60 min post injection
[24] = Rabbit No. 1166, infusion 3 mL/5 min IV (150 mg/kg), 480 min post injection

What does the source list for `CCOC(=O)CCCCCOC(=O)c1c(I)c(NC(C)=O)c(I)c(NC(C)=O)c1I` [PH-50, 6-ethoxy-6-oxohexy-3,5-bis(acetylamino)-2,4,6-triiodobenzoate]?
Percent Uptake (%) Aorta [1]: 44%; Percent Uptake (%) Brain [1]: 2%; Percent Uptake (%) Cardiac [1]: 33%; Percent Uptake (%) Liver [1]: 8%; Percent Uptake (%) Portal Vein [1]: 48%; Percent Uptake (%) Posterior Vena Cava [1]: 54%; Percent Uptake (%) Aorta [2]: 14%; Percent Uptake (%) Brain [2]: 17%; Percent Uptake (%) Cardiac [2]: 61%; Percent Uptake (%) Liver [2]: 32%; Percent Uptake (%) Portal Vein [2]: 91%; Percent Uptake (%) Posterior Vena Cava [2]: 44%; Percent Uptake (%) Aorta [3]: 37%; Percent Uptake (%) Brain [3]: 6%; Percent Uptake (%) Cardiac [3]: 4%; Percent Uptake (%) Liver [3]: 29%; Percent Uptake (%) Portal Vein [3]: 56%; Percent Uptake (%) Posterior Vena Cava [3]: 0%; Percent Uptake (%) Aorta [4]: 39%; Percent Uptake (%) Brain [4]: 14%; Percent Uptake (%) Cardiac [4]: 6%; Percent Uptake (%) Liver [4]: 21%; Percent Uptake (%) Portal Vein [4]: −5%; Percent Uptake (%) Posterior Vena Cava [4]: −43%; Percent Uptake (%) Aorta [5]: −62%; Percent Uptake (%) Brain [5]: 90.1%; Percent Uptake (%) Cardiac [5]: 0%; Percent Uptake (%) Liver [5]: −19%; Percent Uptake (%) Portal Vein [5]: 7%; Percent Uptake (%) Posterior Vena Cava [5]: −21%; Hounsfield Units (HU) Aorta [6]: 49.08 HU; Hounsfield Units (HU) Brain [6]: 44.89 HU; Hounsfield Units (HU) Cardiac [6]: 48.32 HU; Hounsfield Units (HU) Liver [6]: 93.08 HU; Hounsfield Units (HU) Portal Vein [6]: 54.03 HU; Hounsfield Units (HU) Posterior Vena Cava [6]: 73.00 HU; Hounsfield Units (HU) Aorta [7]: 38.85 HU; Hounsfield Units (HU) Brain [7]: 51.38 HU; Hounsfield Units (HU) Cardiac [7]: 58.67 HU; Hounsfield Units (HU) Liver [7]: 113.68 HU; Hounsfield Units (HU) Portal Vein [7]: 69.54 HU; Hounsfield Units (HU) Posterior Vena Cava [7]: 68.54 HU; Hounsfield Units (HU) Aorta [8]: 46.77 HU; Hounsfield Units (HU) Brain [8]: 46.75 HU; Hounsfield Units (HU) Cardiac [8]: 37.81 HU; Hounsfield Units (HU) Liver [8]: 111.22 HU; Hounsfield Units (HU) Portal Vein [8]: 56.85 HU; Hounsfield Units (HU) Posterior Vena Cava [8]: 47.46 HU; Hounsfield Units (HU) Aorta [9]: 47.62 HU; Hounsfield Units (HU) Brain [9]: 50.38 HU; Hounsfield Units (HU) Cardiac [9]: 38.49 HU; Hounsfield Units (HU) Liver [9]: 104.26 HU; Hounsfield Units (HU) Portal Vein [9]: 34.46 HU; Hounsfield Units (HU) Posterior Vena Cava [9]: 27.00 HU; Hounsfield Units (HU) Aorta [10]: 13.00 HU; Hounsfield Units (HU) Brain [10]: 34.37 HU; Hounsfield Units (HU) Cardiac [10]: 36.35 HU; Hounsfield Units (HU) Liver [10]: 69.57 HU; Hounsfield Units (HU) Portal Vein [10]: 38.81 HU; Hounsfield Units (HU) Posterior Vena Cava [10]: 37.72 HU; Percent Uptake (%) Aorta (Rabbit No. 1156 (bolus), 0 min): 317.0%; Percent Uptake (%) Brain (Rabbit No. 1156 (bolus), 0 min): −8%; Percent Uptake (%) Cardiac (Rabbit No. 1156 (bolus), 0 min): 38%; Percent Uptake (%) Liver (Rabbit No. 1156 (bolus), 0 min): 13%; Percent Uptake (%) Portal Vein (Rabbit No. 1156 (bolus), 0 min): 24%; Percent Uptake (%) Posterior Vena Cava (Rabbit No. 1156 (bolus), 0 min): 168.0%; Percent Uptake (%) Aorta (Rabbit No. 1156 (bolus), 5 min): 118%; Percent Uptake (%) Brain (Rabbit No. 1156 (bolus), 5 min): −15%; Percent Uptake (%) Cardiac (Rabbit No. 1156 (bolus), 5 min): 15%; Percent Uptake (%) Liver (Rabbit No. 1156 (bolus), 5 min): 26%; Percent Uptake (%) Portal Vein (Rabbit No. 1156 (bolus), 5 min): 38%; Percent Uptake (%) Posterior Vena Cava (Rabbit No. 1156 (bolus), 5 min): 253%; Percent Uptake (%) Aorta [11]: 162%; Percent Uptake (%) Brain [11]: −8%; Percent Uptake (%) Cardiac [11]: 12%; Percent Uptake (%) Liver [11]: 22%; Percent Uptake (%) Portal Vein [11]: 90%; Percent Uptake (%) Posterior Vena Cava [11]: 112%; Percent Uptake (%) Aorta [12]: 63%; Percent Uptake (%) Brain [12]: −3%; Percent Uptake (%) Cardiac [12]: 18%; Percent Uptake (%) Liver [12]: 19%; Percent Uptake (%) Portal Vein [12]: 108%; Percent Uptake (%) Posterior Vena Cava [12]: 33%; Percent Uptake (%) Aorta [13]: 23%; Percent Uptake (%) Brain [13]: −3%; Percent Uptake (%) Cardiac [13]: 4%; Percent Uptake (%) Liver [13]: −12%; Percent Uptake (%) Portal Vein [13]: −5%; Percent Uptake (%) Posterior Vena Cava [13]: 91%; Hounsfield Units (HU) Aorta [14]: 65.00 HU; Hounsfield Units (HU) Brain [14]: 29.00 HU; Hounsfield Units (HU) Cardiac [14]: 54.00 HU; Hounsfield Units (HU) Liver [14]: 85.00 HU; Hounsfield Units (HU) Portal Vein [14]: 52.00 HU; Hounsfield Units (HU) Posterior Vena Cava [14]: 51.00 HU; Hounsfield Units (HU) Aorta [15]: 34.00 HU; Hounsfield Units (HU) Brain [15]: 27.00 HU; Hounsfield Units (HU) Cardiac [15]: 45.00 HU; Hounsfield Units (HU) Liver [15]: 95.32 HU; Hounsfield Units (HU) Portal Vein [15]: 58.08 HU; Hounsfield Units (HU) Posterior Vena Cava [15]: 67.00 HU; Hounsfield Units (HU) Aorta [16]: 40.85 HU; Hounsfield Units (HU) Brain [16]: 29.03 HU; Hounsfield Units (HU) Cardiac [16]: 44.02 HU; Hounsfield Units (HU) Liver [16]: 91.73 HU; Hounsfield Units (HU) Portal Vein [16]: 79.65 HU; Hounsfield Units (HU) Posterior Vena Cava [16]: 40.31 HU; Hounsfield Units (HU) Aorta [17]: 25.38 HU; Hounsfield Units (HU) Brain [17]: 30.57 HU; Hounsfield Units (HU) Cardiac [17]: 46.52 HU; Hounsfield Units (HU) Liver [17]: 89.56 HU; Hounsfield Units (HU) Portal Vein [17]: 87.37 HU; Hounsfield Units (HU) Posterior Vena Cava [17]: 25.31 HU; Hounsfield Units (HU) Aorta [18]: 19.20 HU; Hounsfield Units (HU) Brain [18]: 30.50 HU; Hounsfield Units (HU) Cardiac [18]: 40.65 HU; Hounsfield Units (HU) Liver [18]: 66.15 HU; Hounsfield Units (HU) Portal Vein [18]: 39.73 HU; Hounsfield Units (HU) Posterior Vena Cava [18]: 36.24 HU; Hounsfield Units (HU) Aorta [19]: 43.80 HU; Hounsfield Units (HU) Brain [19]: 32.30 HU; Hounsfield Units (HU) Cardiac [19]: 30.13 HU; Hounsfield Units (HU) Liver [19]: 87.08 HU; Hounsfield Units (HU) Portal Vein [19]: 53.54 HU; Hounsfield Units (HU) Posterior Vena Cava [19]: 52.17 HU; Hounsfield Units (HU) Aorta [20]: 43.83 HU; Hounsfield Units (HU) Brain [20]: 34.39 HU; Hounsfield Units (HU) Cardiac [20]: 44.96 HU; Hounsfield Units (HU) Liver [20]: 94.17 HU; Hounsfield Units (HU) Portal Vein [20]: 89.92 HU; Hounsfield Units (HU) Posterior Vena Cava [20]: 65.48 HU; Hounsfield Units (HU) Aorta [21]: 21.00 HU; Hounsfield Units (HU) Brain [21]: 31.00 HU; Hounsfield Units (HU) Cardiac [21]: 33.73 HU; Hounsfield Units (HU) Liver [21]: 76.24 HU; Hounsfield Units (HU) Portal Vein [21]: 39.15 HU; Hounsfield Units (HU) Posterior Vena Cava [21]: 25.36 HU; Hounsfield Units (HU) Aorta [22]: 20.82 HU; Hounsfield Units (HU) Brain [22]: 27.15 HU; Hounsfield Units (HU) Cardiac [22]: 47.51 HU; Hounsfield Units (HU) Liver [22]: 117.99 HU; Hounsfield Units (HU) Portal Vein [22]: 63.85 HU; Hounsfield Units (HU) Posterior Vena Cava [22]: 43.09 HU; Hounsfield Units (HU) Aorta [23]: 23.08 HU; Hounsfield Units (HU) Brain [23]: 34.85 HU; Hounsfield Units (HU) Cardiac [23]: 37.66 HU; Hounsfield Units (HU) Liver [23]: 108.39 HU; Hounsfield Units (HU) Portal Vein [23]: 59.87 HU; Hounsfield Units (HU) Posterior Vena Cava [23]: 25.08 HU; Hounsfield Units (HU) Aorta [24]: 14.30 HU; Hounsfield Units (HU) Brain [24]: 38.90 HU; Hounsfield Units (HU) Cardiac [24]: 35.31 HU; Hounsfield Units (HU) Liver [24]: 63.20 HU; Hounsfield Units (HU) Portal Vein [24]: 42.92 HU; Hounsfield Units (HU) Posterior Vena Cava [24]: 39.35 HU; adverse reactions to the compound (normal rabbits, 1 mL bolus or 3 mL/5 min infusion IV): no adverse reactions; Hounsfield units in the liver post-injection (normal rabbits, CT): dramatic increase
